Values of other authors, collected in patent US20250041461A1, “[177LU] LUTETIUM-PSMA I&T COMPOSITION AND DOSIMETRY, KIT, METHOD OF MAKING, AND METHOD OF USING THEREOF” (Curium US LLC, priority 2023, published 2025).
Read-outs that look alike come from different tables or passages of the source.

Experiments:
[1] = system: prostate cancer; details: in vivo; cited from earlier work
[2] = cited from earlier work
[3] = cited from earlier work; for Absorbed Dose, Mean: Pluvicto; for dose estimate, Mean: Pluvicto Spc

For `O=C([O-])CN1CCN(CC(=O)[O-])CCN(CC(=O)NCC2CCC(C(=O)N[C@@H](Cc3ccc4ccccc4c3)C(=O)NCCCC[C@H](NC(=O)N[C@@H](CCC(=O)O)C(=O)O)C(=O)O)CC2)CCN(CC(=O)[O-])CC1.[177Lu+3]` (some centres unmarked) [^177Lu-PSMA-617], the adverse effects [1] is given as “mainly transient adverse effects”, the “mean renal absorbed dose” value ([2]; VISION trial, 29 patients) is given as 0.43±0.16 Gy/GBq and the “mean renal absorbed dose” value ([2]; Violet et al.) is given as 0.39±0.16 Gy/GBq. The “projected cumulative absorbed dose to the kidneys at 6 cycles” value ([2]; Vision trial) was 19±7.3 Gy, the renal toxicities ([2]; Vision trial) was “no renal toxicities were observed” and the “Absorbed Dose, Mean” value ([3]; Bladder) was 0.32 Gy/GBq. For the same molecule, the “dose estimate, Mean” value ([3]; Heart Wall) was 0.17 Gy/GBq, the “Absorbed Dose, Mean” value ([3]; Heart) was 0.17 Gy/GBq and the “dose estimate, Mean” value ([3]; Kidneys) was 0.43 Gy/GBq. The “Absorbed Dose, Mean” value ([3]; Kidneys) was 0.43 Gy/GBq, the “Absorbed Dose, Mean” value ([3]; Lacrimal Glands) was 2.1 Gy/GBq and the “dose estimate, Mean” value ([3]; Lacrimal gland) was 2.1 Gy/GBq. For the same molecule, the “Absorbed Dose, Mean” value ([3]; Left Colon) was 0.58 Gy/GBq, the “dose estimate, Mean” value ([3]; Left colon) was 0.58 Gy/GBq and the “dose estimate, Mean” value ([3]; Liver) was 0.09 Gy/GBq. For the same molecule, the “Absorbed Dose, Mean” value ([3]; Liver) was 0.090 Gy/GBq, the “dose estimate, Mean” value ([3]; Rectum) was 0.56 Gy/GBq and the “Absorbed Dose, Mean” value ([3]; Right Colon) was 0.32 Gy/GBq. The “dose estimate, Mean” value ([3]; Right colon) was 0.32 Gy/GBq, the “Absorbed Dose, Mean” value ([3]; Salivary Glands) was 0.63 Gy/GBq and the “dose estimate, Mean” value ([3]; Salivary glands) was 0.63 Gy/GBq. The “dose estimate, Mean” value ([3]; Spleen) was 0.07 Gy/GBq, the “Absorbed Dose, Mean” value ([3]; Spleen) was 0.067 Gy/GBq and the “dose estimate, Mean” value ([3]; Thyroid) was 0.26 Gy/GBq. The “Absorbed Dose, Mean” value ([3]; Thyroid) was 0.26 Gy/GBq and the “dose estimate, Mean” value ([3]; Urinary bladder wall) was 0.32 Gy/GBq.
